{"source": "patent US10576102B2", "about": "“KOC1-derived peptide and vaccine including same” (ONCOTHERAPY SCIENCE, INC., priority 2014, dated 2020)", "key": {"[1]": {"system": "peptide-pulsed C1R-A03", "assay": "IFN-gamma ELISA of CTL line and CTL clone (HLA-A*0301)", "format": "cell-based, human", "description": "CTLs were propagated in culture using methods similar to those disclosed by Riddell et al. (Walter E A et al., N Engl J Med 1995, 333(16): 1038-44; Riddell S R et al., Nat Med 1996, 2(2): 216-23). The CTLs were co-cultured in a total of 25 ml AIM-V medium containing 5% AS (AIM-V/5% AS) and 40 ng/ml anti-CD3 antibody with two types of Mitomycin C-treated human B lymphoblastoid cell lines at 5×10^6 cells/flask. One day after beginning of the culturing, 120 IU/ml IL-2 was added to the culture. On days 5, 8 and 11, a fresh AIM-V/5% AS medium containing 30 IU/ml IL-2 was added to the culture (Tanaka H et al., Br J Cancer 2001, 84(1): 94-9; Umano Y et al., Br J Cancer 2001, 84(8): 1052-7; Uchida N et al., Clin Cancer Res 2004, 10(24): 8577-86; Suda T et al., Cancer Sci 2006, 97(5): 411-9; Watanabe T et al., Cancer Sci 2005, 96(8): 498-506).\nDilution of CTLs was carried out to make 0.3, 1 and 3 cells/well in 96 round-bottomed microtiter plates (Nalge Nunc International). The CTLs were co-cultured with two types of Mitomycin C-treated human B lymphoblastoid cell lines at 1×10^4 cells/well in a total of 150 micro-1/well AIM-V/5% AS medium with 30 ng/ml anti-CD3 antibody and 125 IU/ml IL-2. Ten days later, IL-2 was added to the medium at 50 micro-1/well to reach a final concentration of 125 IU/ml. […]"}, "[2]": {"system": "COS7 cells transfected with both KOC1 and HLA-A*0301", "assay": "Specific CTL activity against target cells expressing KOC1 and HLA-A*0301", "format": "cell-based, African green monkey", "conditions": "listed as KOC1-A03-10-120", "description": "Specifically, peptide-pulsed C1R-A03 (1×10^4 cells/well) was prepared as the stimulator cell. The induced CTLs, i.e., CTL lines and CTL clones, were used as the responder cell. The IFN-gamma ELISPOT assay and IFN-gamma ELISA were performed according to the manufacturer's manual.\nA cDNA encoding the open-reading frame of a target gene or HLA-A*0301 was amplified by PCR. The PCR-amplified product was cloned into an expression vector. Either or both of the target gene-expressing vector and the HLA-A*0301-expressing vector were transfected into […], which is a cell line negative for the target gene and HLA, using Lipofectamine 2000 (Invitrogen) following the manufacturer's recommended protocol. Two days after transfection, the transfected cells were harvested using versene (Invitrogen), and used as the target cell for CTL activity assay (5×10^4 cells/well).\nThe CTL clone established against KOC1-A03-10-120 (SEQ ID NO: 27) was investigated for their ability to recognize target cells expressing KOC1 and the HLA-A*0301 molecule. COS7 cells transfected with both full-length KOC1 and the HLA-A*0301 gene (a specific model of target cells expressing KOC1 and the HLA-A*0301 gene) were prepared as the target cell. COS7 cells transfected with either full-length KOC1 or HLA-A*0301 were prepared as the control."}, "[3]": {"system": "peptide-pulsed C1R-A03", "assay": "In vitro CTL induction, IFN-gamma ELISPOT assay (HLA-A*0301)", "format": "cell-based, human", "conditions": "CTLs induced with peptide-pulsed DCs from HLA-A*0301-positive volunteers; day 21; vs peptide-pulsed C1R-A03, compared with unpulsed control", "description": "C1R (C1R-A03) that stably expresses HLA-A*0301 was used as a stimulator cell. A cDNA encoding the open-reading frame of HLA-A*0301 was amplified by PCR and cloned into an expression vector. C1R cells were transfected with the expression vector, and then selected using G418 (Invitrogen) for two weeks. The G418-selected cells were seeded into wells containing G418-added culture medium in a 96-well plate, and further cultured for 30 days. The exogenous HLA-A*0301 expression in C1R cells was verified by flow cytometric analysis.\nMonocyte-derived dendritic cells (DCs) were used as the antigen-presenting cell to induce a cytotoxic T lymphocyte (CTL) response against peptides presented on human leukocyte antigens (HLAs). As described in the other sections, DCs were generated in vitro (Nakahara S et al., Cancer Res 2003, 63(14): 4112-8). Specifically, peripheral-blood mononuclear cells isolated from healthy volunteers (HLA-A*0301-positive) with the Ficoll-Paque plus solution (Pharmacia) were separated by attaching to plastic tissue culture dishes (Becton Dickinson) and concentrated as a monocyte fraction. The monocyte-concentrated population was cultured in the presence of 1000 IU/ml granulocyte macrophage colony-stimulating factor (R&D System) and 1000 IU/ml interleukin(IL)-4 (R&D System) in an AIM-V medium (Invitrogen) containing 2% heat-inactivated autologous serum (AS). After seven days of culturing, the cytokine-induced DCs were pulsed with 20 micro-g/ml each of the synthesized peptides in an AIM-V medium at 37 degrees C. for three hours in the presence of 3 micro-g/ml beta 2-microglobulin. The generated cells appeared to express on their cell surface DC-associated molecules such as CD80, CD83, CD86 and HLA class II (data not shown). Next, these peptide-pulsed DCs were inactivated by X-ray irradiation (20 Gy), and mixed in a 1:20 ratio with autologous CD8^+ T cells obtained by positive selection using the CD8 Positive Isolation Kit (Dynal). These culture products were seeded in a 48-well plate (Corning). Each well was made to contain 1.5×10^4 peptide-pulsed DCs, 3×10^5 CD8^+ T cells and 10 ng/ml IL-7 (R&D System) in 0.5 ml of the AIM-V/2% AS medium. Three days later, these culture products were added with a final concentration of 20 IU/ml IL-2 (CHIRON). On day 7 and day 14, T cells were further stimulated with peptide-pulsed autologous DCs. The DCs were prepared every time by the same method as above. […]"}}, "note": "Entries after “also recorded” stand apart in the source; their conditions may differ."}
{"sequence": "AVVNVTYSSK (a peptide derived from KOC1) [SEQ ID NO: 27]", "values": [{"measurement": "IFN-gamma production of CTL clone, ELISA", "setting": "[1]; CTL clone by limiting dilution, peptide-pulsed C1R-A03, listed as KOC1-A03-10-120", "value": "Potent IFN-gamma production"}, {"measurement": "IFN-gamma production of CTL line, ELISA", "setting": "[1]; CTL line, target cells pulsed with the peptide vs not pulsed, C1R-A03", "value": "potent IFN-gamma production"}, {"measurement": "specific CTL activity of CTL clone against target cells expressing KOC1 and HLA-A*0301", "setting": "[2]; COS7 transfected with both full-length KOC1 and HLA-A*0301", "value": "specific CTL activity; also recorded: potent CTL activities"}, {"measurement": "specific CTL activity of CTL clone against control cells", "setting": "[2]; COS7 transfected with either full-length KOC1 or HLA-A*0301", "value": "a significant specific CTL activity was not shown; also recorded: a significant specific CTL activity was not detected"}, {"measurement": "peptide-specific CTL activity (IFN-gamma production), ELISPOT", "setting": "[3]", "value": "potent IFN-gamma production"}]}
